{"source": "paper PMC6968383", "about": "“Design, synthesis, in vitro and in vivo evaluation of benzylpiperidine-linked 1,3-dimethylbenzimidazolinones as cholinesterase inhibitors against Alzheimer’s disease” (Journal of Enzyme Inhibition and Medicinal Chemistry, 2019)", "key": {"eeAChE": {"target": "T1, eeAChE (Electrophorus electricus, UniProt O42275)", "T1 construct": "purchased Sigma-Aldrich", "T1 sequence (O42275 24-633)": "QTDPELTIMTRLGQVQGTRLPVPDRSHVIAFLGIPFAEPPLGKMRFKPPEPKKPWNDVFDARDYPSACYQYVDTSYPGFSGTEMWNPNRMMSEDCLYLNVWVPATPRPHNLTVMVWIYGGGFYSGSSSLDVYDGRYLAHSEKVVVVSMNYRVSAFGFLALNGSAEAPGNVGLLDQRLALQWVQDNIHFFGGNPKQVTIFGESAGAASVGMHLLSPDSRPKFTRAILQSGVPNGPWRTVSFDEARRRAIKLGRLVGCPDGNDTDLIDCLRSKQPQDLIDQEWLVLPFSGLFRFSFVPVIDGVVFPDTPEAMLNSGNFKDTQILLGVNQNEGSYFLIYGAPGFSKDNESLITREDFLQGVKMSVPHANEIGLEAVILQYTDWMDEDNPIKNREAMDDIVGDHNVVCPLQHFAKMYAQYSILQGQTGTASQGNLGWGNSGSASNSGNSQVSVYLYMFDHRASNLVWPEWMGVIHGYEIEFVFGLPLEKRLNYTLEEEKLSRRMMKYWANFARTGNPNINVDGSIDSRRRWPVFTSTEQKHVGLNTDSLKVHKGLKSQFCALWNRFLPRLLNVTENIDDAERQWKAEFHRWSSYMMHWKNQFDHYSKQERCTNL", "assay": "Kinetic study of AChE inhibition (Lineweaver–Burk)", "assay_type": "biochemical", "conditions": "Lineweaver–Burk plot, 0, 2, 5, 10, 20 µM", "procedure": "In each case, the kinetic type of enzyme inhibition was obtained through the modified Ellman’s method and Lineweaver–Burk secondary plots.\nFigure 2. […] (B) Lineweaver–Burk plot for the inhibition of eqBChE by compound 15j at different concentrations of substrate.\nKinetic studies were performed in the same manner as the determination of ChEs inhibition, while the substrate (ATC/BTC) was used in concentrations of 90, 150, 226, 452, and 904 µM. The concentrations of test compounds were set to 0, 2, 5, 10, and 20 µM for 15b and 0, 0.5, 1, 2, and 5 µM for 15j. The enzymatic reaction was extended to 7 min for eeAChE and eqBuChE before the determination of the absorption. Vmax and Km values of the Michaelis–Menten kinetics were calculated by nonlinear regression from substrate-velocity curves using GraphPad Prism 6.0. Linear regression was used for fitting the Lineweaver–Burk plots."}, "[1]": {"target": "T2, AChE (EC 3.1.1.7) from electric eel (Electrophorus electricus, UniProt O42275)", "T2 construct": "purchased Sigma-Aldrich", "T2 sequence (O42275 24-633)": "as above", "assay": "biochemical", "assay_type": "biochemical", "procedure": "(§1) The data were expressed as IC50 values (Table 1).\n(§2) The inhibitory activities of the target compounds towards AChE (from Electrophorus electricus (electric eeAChE, Sigma-Aldrich) and horse serum BChE (eqBChE, Sigma-Aldrich) or human AChE – huAChE; human BuChE – huBuChE (huAChE, huBuChE, Sigma-Aldrich) were measured by Ellman’s method. In 96-well plates, a mixture of phosphate buffer (0.1 M, pH 8.0, […]), 5,5′-dithiobis-2-nitrobenzoic acid (DTNB, 60 µL), acetylcholinestrase or butyrylcholinesterase (20 µL, 5 IU/mL) and different concentration of the compound solution (30 µL) was pre-incubated for 5 min followed by the addition of the substrate (acetylthiocholine iodide or butyrylthiocholine iodide, 20 µL). […] The measurement of each concentration for each compound was detected in triplicate. GraphPad Prism 6.0 (GraphPad Software, Inc., La Jolla, CA) was used for data processing. The inhibition curve was fitted by plotting percentage enzyme activity (100% for the reference) versus the logarithm of the concentration of tested compound. The half-maximal inhibitory concentration (IC50) values were calculated according to the inhibition curve and the data were shown in the layout of mean ± SEM by GraphPad Prism 6.0."}, "[2]": {"target": "T3, BChE (EC 3.1.1.8) from horse serum (Equus caballus, UniProt P81908)", "T3 construct": "horse serum BChE (eqBChE, Sigma-Aldrich); purchased Sigma-Aldrich; host or cells: horse serum", "T3 sequence (P81908 whole entry)": "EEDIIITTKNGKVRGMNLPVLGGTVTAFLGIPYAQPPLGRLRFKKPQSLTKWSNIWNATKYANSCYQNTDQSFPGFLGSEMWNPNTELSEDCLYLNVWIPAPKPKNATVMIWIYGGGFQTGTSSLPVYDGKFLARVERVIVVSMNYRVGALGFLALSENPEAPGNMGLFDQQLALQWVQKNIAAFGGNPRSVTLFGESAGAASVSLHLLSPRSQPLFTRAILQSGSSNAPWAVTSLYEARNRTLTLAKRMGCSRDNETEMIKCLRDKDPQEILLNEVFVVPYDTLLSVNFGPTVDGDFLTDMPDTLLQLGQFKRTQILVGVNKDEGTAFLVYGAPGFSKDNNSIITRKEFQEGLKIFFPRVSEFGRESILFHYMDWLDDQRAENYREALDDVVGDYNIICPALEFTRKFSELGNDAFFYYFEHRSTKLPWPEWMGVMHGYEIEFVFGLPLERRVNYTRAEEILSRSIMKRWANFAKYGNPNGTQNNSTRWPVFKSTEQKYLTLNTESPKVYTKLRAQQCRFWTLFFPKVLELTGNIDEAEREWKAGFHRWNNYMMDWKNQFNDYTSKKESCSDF", "assay": "biochemical", "conditions": "eqBChE; mean ± SEM of triplicate independent experiments; read-out: BChE IC50", "procedure": "as §1, §2"}}}
{"smiles": "Cc1ccccc1CN1CCC(CNS(=O)(=O)c2ccc3c(c2)n(C)c(=O)n3C)CC1", "note": "[Compound 15b, 1,3-dimethyl-N-((1–(2-methylbenzyl)piperidin-4-yl)methyl)-2-oxo-2,3-dihydro-1H-benzo[d]imidazole-5-sulphonamide]", "values": [{"measurement": "kinetic type of AChE inhibition", "setting": "eeAChE", "result": "competitive"}]}
{"smiles": "Cn1c(=O)n(C)c2cc(S(=O)(=O)NCC3CCN(Cc4cccc(Br)c4)CC3)ccc21", "note": "[Compound 15j, N-((1–(3-bromobenzyl)piperidin-4-yl)methyl)-1,3-dimethyl-2-oxo-2,3-dihydro-1H-benzo[d]imidazole-5-sulphonamide]", "values": [{"measurement": "SI (selectivity index = AChE IC50/BChE IC50)", "setting": "[1]; eeAChE IC50 / eqBChE IC50", "result": 2.44}, {"measurement": "IC50", "setting": "[1]; eeAChE, mean ± SEM of triplicate independent experiments, read-out: AChE IC50", "result": "0.39 ± 0.15", "unit": "µM"}, {"measurement": "IC50", "setting": "[2]", "result": "0.16 ± 0.04", "unit": "µM"}]}
